Laboratory results as given in the kinase profiling compilation of Christmann-Franck et al. (2016).
pKd: −log10 of the molar value.

Experiments:
Test in all cases: KINOMEscan competition binding
[1] = target: BTK (human) (UniProt Q06187); conditions: compound 10.0 µM
[2] = target: TNK1 (human) (UniProt Q13470); conditions: compound 10.0 µM
[3] = target: NEK1 (human) (UniProt Q96PY6); conditions: compound 10.0 µM
[4] = target: PIK3CG (human) (UniProt P48736); conditions: compound 10.0 µM
[5] = target: TGFBR1 (human) (UniProt P36897); conditions: compound 10.0 µM
[6] = target: CDK18 (human) (UniProt Q07002); conditions: compound 10.0 µM
[7] = target: RPS6KA6 KD1 (human) (UniProt Q9UK32); conditions: compound 10.0 µM
[8] = target: OXSR1 (human) (UniProt O95747); conditions: compound 10.0 µM
[9] = target: WEE2 (human) (UniProt P0C1S8); conditions: compound 10.0 µM
[10] = target: MAPK10 (human) (UniProt P53779)
[11] = target: MYO3A (human) (UniProt Q8NEV4); conditions: compound 10.0 µM
[12] = target: CDK13 (human) (UniProt Q14004); conditions: compound 10.0 µM
[13] = target: CLK4 (human) (UniProt Q9HAZ1); conditions: compound 10.0 µM
[14] = target: TTK (human) (UniProt P33981); conditions: compound 10.0 µM
[15] = target: PLK2 (human) (UniProt Q9NYY3); conditions: compound 10.0 µM
[16] = target: DMPK (human) (UniProt Q09013); conditions: compound 10.0 µM
[17] = target: FES (human) (UniProt P07332); conditions: compound 10.0 µM
[18] = target: PIP5K1C (human) (UniProt O60331); conditions: compound 10.0 µM
[19] = target: CSF1R (human) (UniProt P07333); conditions: compound 10.0 µM
[20] = test system: EGFR (human), P00533 [A750P; 747-749 del]; conditions: compound 10.0 µM
[21] = target: STK36 (human) (UniProt Q9NRP7); conditions: compound 10.0 µM
[22] = target: ERBB3 (human) (UniProt P21860); conditions: compound 10.0 µM
[23] = test system: CPK1 (P.falciparum); conditions: compound 10.0 µM
[24] = target: PRKACB (human) (UniProt P22694); conditions: compound 10.0 µM
[25] = target: SIK1 (human) (UniProt P57059); conditions: compound 10.0 µM
[26] = target: ITK (human) (UniProt Q08881); conditions: compound 10.0 µM
[27] = target: ICK (human) (UniProt Q9UPZ9); conditions: compound 10.0 µM
[28] = target: LTK (human) (UniProt P29376); conditions: compound 10.0 µM
[29] = target: CaMK1 (human) (UniProt Q14012); conditions: compound 10.0 µM
[30] = target: PKN3 (M.tuberculosis) (UniProt Q6P5Z2); conditions: compound 10.0 µM
[31] = target: CDC42BPG (human) (UniProt Q6DT37); conditions: compound 10.0 µM
[32] = target: PKMYT1 (human) (UniProt Q99640); conditions: compound 10.0 µM
[33] = target: DSTYK (human) (UniProt Q6XUX3); conditions: compound 10.0 µM
[34] = target: PLK1 (human) (UniProt P53350); conditions: compound 10.0 µM
[35] = target: HIPK2 (human) (UniProt Q9H2X6); conditions: compound 10.0 µM
[36] = target: NEK9 (human) (UniProt Q8TD19); conditions: compound 10.0 µM
[37] = target: DCLK2 (human) (UniProt Q8N568); conditions: compound 10.0 µM
[38] = target: RPS6KA2 KD2 (human) (UniProt Q15349); conditions: compound 10.0 µM
[39] = target: MUSK (human) (UniProt O15146); conditions: compound 10.0 µM
[40] = target: CAMK4 (human) (UniProt Q16566); conditions: compound 10.0 µM
[41] = target: SRPK3 (human) (UniProt Q9UPE1); conditions: compound 10.0 µM
[42] = target: MAP2K4 (human) (UniProt P45985); conditions: compound 10.0 µM
[43] = target: BMP2K (human) (UniProt Q9NSY1); conditions: compound 10.0 µM
Sequence of BMP2K (human) (Q9NSY1 whole entry, looked up): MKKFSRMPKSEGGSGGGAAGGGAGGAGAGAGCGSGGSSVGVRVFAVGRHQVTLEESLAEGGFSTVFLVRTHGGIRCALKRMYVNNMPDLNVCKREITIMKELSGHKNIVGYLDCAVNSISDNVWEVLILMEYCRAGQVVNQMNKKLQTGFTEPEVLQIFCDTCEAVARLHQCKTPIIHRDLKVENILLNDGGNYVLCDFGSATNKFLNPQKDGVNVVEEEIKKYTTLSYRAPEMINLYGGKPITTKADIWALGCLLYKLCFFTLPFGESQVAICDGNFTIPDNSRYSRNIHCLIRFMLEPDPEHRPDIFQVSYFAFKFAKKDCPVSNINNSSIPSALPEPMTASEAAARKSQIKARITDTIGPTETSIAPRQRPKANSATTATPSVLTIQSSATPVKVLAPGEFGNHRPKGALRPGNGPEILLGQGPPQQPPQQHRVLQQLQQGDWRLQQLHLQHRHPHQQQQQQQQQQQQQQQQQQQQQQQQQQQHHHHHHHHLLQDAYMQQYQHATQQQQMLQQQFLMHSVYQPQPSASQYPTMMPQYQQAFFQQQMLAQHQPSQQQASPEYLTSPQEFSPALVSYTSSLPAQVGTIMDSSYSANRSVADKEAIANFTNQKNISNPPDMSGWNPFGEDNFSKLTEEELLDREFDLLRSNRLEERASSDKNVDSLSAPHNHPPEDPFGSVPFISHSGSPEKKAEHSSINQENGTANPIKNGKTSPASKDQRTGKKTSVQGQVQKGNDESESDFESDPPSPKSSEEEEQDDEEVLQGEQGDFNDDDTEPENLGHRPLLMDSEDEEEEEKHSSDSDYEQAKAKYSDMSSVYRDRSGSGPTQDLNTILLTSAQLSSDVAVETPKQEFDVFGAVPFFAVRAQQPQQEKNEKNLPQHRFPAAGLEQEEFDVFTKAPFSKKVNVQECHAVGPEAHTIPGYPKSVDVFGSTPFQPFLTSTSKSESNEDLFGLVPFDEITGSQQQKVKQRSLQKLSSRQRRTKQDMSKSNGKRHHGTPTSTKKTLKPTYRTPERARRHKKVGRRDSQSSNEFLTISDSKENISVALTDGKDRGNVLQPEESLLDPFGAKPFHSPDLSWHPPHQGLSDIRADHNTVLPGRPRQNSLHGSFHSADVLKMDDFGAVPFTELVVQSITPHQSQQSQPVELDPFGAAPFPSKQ

Sequence of MAPK10 (human) (P53779 whole entry, looked up): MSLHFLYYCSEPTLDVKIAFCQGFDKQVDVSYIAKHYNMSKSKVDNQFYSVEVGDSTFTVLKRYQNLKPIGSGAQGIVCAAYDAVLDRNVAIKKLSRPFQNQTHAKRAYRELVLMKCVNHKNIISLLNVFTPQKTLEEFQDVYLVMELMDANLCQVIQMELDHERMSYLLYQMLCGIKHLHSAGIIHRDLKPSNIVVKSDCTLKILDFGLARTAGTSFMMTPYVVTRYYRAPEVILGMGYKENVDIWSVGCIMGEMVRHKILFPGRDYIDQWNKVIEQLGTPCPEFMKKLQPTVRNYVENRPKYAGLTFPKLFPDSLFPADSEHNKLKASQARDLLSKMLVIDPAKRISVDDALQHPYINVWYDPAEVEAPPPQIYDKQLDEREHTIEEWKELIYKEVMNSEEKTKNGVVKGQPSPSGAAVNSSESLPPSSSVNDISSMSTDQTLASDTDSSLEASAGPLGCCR
Sequence of STK36 (human) (Q9NRP7 whole entry, looked up): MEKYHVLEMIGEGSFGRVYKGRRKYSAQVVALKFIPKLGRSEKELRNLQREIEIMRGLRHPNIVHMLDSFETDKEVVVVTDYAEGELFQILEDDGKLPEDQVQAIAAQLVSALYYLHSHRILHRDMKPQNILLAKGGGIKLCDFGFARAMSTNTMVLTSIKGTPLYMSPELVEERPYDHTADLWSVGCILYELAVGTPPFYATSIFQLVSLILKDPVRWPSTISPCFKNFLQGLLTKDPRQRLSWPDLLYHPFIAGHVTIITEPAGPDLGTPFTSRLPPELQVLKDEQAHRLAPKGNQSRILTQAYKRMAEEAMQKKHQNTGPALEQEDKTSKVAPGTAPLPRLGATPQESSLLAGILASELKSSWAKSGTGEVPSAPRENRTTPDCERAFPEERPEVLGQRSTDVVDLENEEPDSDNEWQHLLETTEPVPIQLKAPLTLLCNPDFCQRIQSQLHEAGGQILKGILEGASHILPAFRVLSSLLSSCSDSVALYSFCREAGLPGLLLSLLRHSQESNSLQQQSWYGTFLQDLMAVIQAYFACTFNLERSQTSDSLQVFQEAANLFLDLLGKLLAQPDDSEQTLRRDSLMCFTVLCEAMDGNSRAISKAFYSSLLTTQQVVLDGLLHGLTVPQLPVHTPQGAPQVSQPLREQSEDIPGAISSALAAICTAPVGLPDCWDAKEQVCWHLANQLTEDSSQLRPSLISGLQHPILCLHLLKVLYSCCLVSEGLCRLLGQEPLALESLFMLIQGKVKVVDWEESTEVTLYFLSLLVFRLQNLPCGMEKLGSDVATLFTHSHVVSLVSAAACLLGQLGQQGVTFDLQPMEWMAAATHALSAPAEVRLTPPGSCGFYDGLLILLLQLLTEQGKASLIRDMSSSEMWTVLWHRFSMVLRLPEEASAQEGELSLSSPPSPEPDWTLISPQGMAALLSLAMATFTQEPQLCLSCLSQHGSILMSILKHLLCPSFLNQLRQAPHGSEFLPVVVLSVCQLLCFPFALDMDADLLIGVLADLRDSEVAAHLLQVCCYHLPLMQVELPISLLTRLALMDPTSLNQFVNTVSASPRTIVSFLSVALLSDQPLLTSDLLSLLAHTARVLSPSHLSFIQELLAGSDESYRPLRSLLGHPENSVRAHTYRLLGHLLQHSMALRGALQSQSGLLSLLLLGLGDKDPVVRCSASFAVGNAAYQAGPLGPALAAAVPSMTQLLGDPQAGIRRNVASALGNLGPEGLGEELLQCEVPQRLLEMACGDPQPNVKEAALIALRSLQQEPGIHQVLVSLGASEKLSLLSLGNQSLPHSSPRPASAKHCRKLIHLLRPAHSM
Sequence of MAP2K4 (human) (P45985 whole entry, looked up): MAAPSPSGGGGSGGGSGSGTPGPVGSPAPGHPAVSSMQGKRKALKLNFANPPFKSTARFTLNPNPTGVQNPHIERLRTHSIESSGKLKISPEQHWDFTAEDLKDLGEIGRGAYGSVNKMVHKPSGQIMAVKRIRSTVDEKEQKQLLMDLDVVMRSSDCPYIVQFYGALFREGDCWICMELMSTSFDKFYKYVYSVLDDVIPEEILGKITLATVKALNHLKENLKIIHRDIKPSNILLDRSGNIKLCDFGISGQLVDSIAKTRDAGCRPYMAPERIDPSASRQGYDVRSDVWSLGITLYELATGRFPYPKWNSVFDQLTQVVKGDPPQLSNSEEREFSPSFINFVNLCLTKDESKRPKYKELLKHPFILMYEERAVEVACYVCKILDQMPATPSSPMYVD
Sequence of RPS6KA2 KD2 (human) (Q15349 whole entry, looked up): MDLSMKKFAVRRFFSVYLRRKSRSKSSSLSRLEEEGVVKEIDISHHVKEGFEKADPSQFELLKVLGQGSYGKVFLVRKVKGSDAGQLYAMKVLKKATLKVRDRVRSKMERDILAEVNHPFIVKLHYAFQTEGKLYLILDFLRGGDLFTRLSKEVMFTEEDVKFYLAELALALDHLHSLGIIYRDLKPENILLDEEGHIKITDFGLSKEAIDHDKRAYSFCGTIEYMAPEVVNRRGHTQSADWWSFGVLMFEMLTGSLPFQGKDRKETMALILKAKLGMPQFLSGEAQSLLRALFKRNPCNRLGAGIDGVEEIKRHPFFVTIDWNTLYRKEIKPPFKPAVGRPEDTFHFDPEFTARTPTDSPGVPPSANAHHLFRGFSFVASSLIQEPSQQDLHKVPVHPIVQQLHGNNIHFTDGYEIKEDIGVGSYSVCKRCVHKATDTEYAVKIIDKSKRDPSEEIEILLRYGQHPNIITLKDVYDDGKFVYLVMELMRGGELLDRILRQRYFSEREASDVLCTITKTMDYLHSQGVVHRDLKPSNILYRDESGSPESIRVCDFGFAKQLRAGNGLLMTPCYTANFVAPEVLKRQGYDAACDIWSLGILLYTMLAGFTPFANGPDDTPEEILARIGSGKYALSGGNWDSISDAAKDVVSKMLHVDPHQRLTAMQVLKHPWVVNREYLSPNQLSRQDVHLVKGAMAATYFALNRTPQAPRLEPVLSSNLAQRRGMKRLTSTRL
Sequence of PKN3 (M.tuberculosis) (Q6P5Z2 whole entry, looked up): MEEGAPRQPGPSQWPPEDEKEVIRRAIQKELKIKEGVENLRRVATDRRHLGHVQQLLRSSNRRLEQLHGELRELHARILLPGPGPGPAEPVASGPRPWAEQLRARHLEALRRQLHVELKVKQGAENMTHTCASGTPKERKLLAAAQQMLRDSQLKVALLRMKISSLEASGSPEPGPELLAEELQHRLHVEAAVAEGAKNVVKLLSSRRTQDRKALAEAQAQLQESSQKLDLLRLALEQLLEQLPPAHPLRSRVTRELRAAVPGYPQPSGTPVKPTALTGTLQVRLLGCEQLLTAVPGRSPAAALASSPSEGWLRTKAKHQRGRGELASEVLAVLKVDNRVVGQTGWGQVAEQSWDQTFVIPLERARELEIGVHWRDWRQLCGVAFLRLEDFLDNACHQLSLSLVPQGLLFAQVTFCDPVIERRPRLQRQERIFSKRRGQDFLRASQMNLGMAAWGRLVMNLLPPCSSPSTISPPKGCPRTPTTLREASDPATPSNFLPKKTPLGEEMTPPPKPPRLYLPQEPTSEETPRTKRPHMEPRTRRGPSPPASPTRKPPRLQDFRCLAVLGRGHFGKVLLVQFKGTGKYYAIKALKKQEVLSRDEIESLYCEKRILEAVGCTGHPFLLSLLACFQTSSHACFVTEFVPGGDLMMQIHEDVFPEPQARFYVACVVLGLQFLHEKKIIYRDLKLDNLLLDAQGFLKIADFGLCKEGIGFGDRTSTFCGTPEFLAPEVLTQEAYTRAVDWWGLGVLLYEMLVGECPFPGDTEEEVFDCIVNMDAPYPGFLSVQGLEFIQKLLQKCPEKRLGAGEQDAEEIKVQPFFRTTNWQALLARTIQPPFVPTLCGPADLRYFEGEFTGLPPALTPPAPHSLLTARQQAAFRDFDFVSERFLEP

Cc1ccc(NC(=O)c2ccc(NC(=O)/C=C/CN(C)C)cc2)cc1Nc1nccc(-c2cccnc2)n1
kinase still bound, per cent of control [1]: 76%
kinase still bound, per cent of control [2]: 8.7%
kinase still bound, per cent of control [3]: 100%
kinase still bound, per cent of control [4]: 68%
kinase still bound, per cent of control [5]: 100%
kinase still bound, per cent of control [6]: 85%
kinase still bound, per cent of control [7]: 50%
kinase still bound, per cent of control [8]: 82%
kinase still bound, per cent of control [9]: 100%
pKd [10]: 7.00
kinase still bound, per cent of control ([10]; compound 10.0 µM): 0.25%
kinase still bound, per cent of control [11]: 100%
kinase still bound, per cent of control [12]: 65%
kinase still bound, per cent of control [13]: 6.2%
kinase still bound, per cent of control [14]: 83%
kinase still bound, per cent of control [15]: 34%
kinase still bound, per cent of control [16]: 100%
kinase still bound, per cent of control [17]: 100%
kinase still bound, per cent of control [18]: 90%
kinase still bound, per cent of control [19]: 9.2%
kinase still bound, per cent of control [20]: 59%
kinase still bound, per cent of control [21]: 100%
kinase still bound, per cent of control [22]: 100%
kinase still bound, per cent of control [23]: 86%
kinase still bound, per cent of control [24]: 100%
kinase still bound, per cent of control [25]: 100%
kinase still bound, per cent of control [26]: 100%
kinase still bound, per cent of control [27]: 82%
kinase still bound, per cent of control [28]: 100%
kinase still bound, per cent of control [29]: 75%
kinase still bound, per cent of control [30]: 86%
kinase still bound, per cent of control [31]: 86%
kinase still bound, per cent of control [32]: 79%
kinase still bound, per cent of control [33]: 81%
kinase still bound, per cent of control [34]: 83%
kinase still bound, per cent of control [35]: 54%
kinase still bound, per cent of control [36]: 100%
kinase still bound, per cent of control [37]: 100%
kinase still bound, per cent of control [38]: 86%
kinase still bound, per cent of control [39]: 99%
kinase still bound, per cent of control [40]: 100%
kinase still bound, per cent of control [41]: 76%
kinase still bound, per cent of control [42]: 15%
kinase still bound, per cent of control [43]: 88%
